The record followed here is patent US8648070B2, “Bicyclic ring system substituted sulfonamide functionalised phenols as medicaments” (Boehringer Ingelheim International GmbH, priority 2010, dated 2014).

SMILES strings stand for the structures.

The target in this assay is T1, human CXCR2 (Homo sapiens, UniProt P25025).
T1 construct: expressed in transfected cells; host or cells: BAF/3 cells
T1 sequence (P25025 1-360): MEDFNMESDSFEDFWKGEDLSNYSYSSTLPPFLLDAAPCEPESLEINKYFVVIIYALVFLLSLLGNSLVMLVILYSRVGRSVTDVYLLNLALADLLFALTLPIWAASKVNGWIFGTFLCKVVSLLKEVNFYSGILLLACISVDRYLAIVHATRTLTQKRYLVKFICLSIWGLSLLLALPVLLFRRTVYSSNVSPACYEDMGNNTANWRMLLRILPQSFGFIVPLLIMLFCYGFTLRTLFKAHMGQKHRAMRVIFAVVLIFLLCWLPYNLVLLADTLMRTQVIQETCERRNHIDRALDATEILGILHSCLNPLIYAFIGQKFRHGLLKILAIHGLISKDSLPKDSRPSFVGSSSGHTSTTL
The experiment in a line: Chemotaxis assay 1, transfected cell line: inhibition of CXCL1 induced chemotaxis of BAF/3 cells expressing human CXCR2. In kind it is cell-based. To be noted: CXCL1 (3 nM) induced chemotaxis of BAF/3 cells expressing human CXCR2, 4 hours, Cell Titer Glo readout. On the procedure: Chemotaxis Assay 1, Transfected Cell Line:
This assay measures the inhibition of CXCL1 induced chemotaxis of BAF/3 cells expressing human CXCR2. For each assay point, 100 μL of a 3×10^6/mL cell suspension are incubated with 1 μL of test compound diluted in DMSO. The bottom wells of a chemotaxis plate (5 μm pore size, Neuroprobe) is filled with 305 μL of chemotaxis buffer (RPMI 1640 medium (phenol red free), containing 2% fetal calf serum) and 3 nM CXCL1. The 5 μm pore membrane is applied onto the chemotaxis plate and 80 μL of the cell suspension is cautiously pipetted onto the membrane. The lid is put on the chemotaxis plate and the plate is incubated for 4 hours in an incubator (37° C., 5% CO2). For quantification of migrated cells, the cell suspension and the lid are removed and 100 μL from the bottom chamber are transferred to an Opti plate 96 (Perkin Elmer). 100 μL of substrate solution (provided by Cell Titer Glo kit, Promega) are added. This method uses the measurement of ATP present in metabolically active cells. After 10 min incubation at room temperature the plate is measured at Luminoscan for quantification of ATP-dependent generation of oxyluciferin. IC50s of the tested compound are calculated by non-linear regression and using a sigmoidal dose-response curve as fitting algorithm (provided by GraphPadPrism). Determination of a bottom value is performed by quantification of migration of buffer treated cells, migrating towards buffer only. Determination of a top value is performed by quantification of migration of buffer treated cells, migrating towards CXCL1.
In general terms: Cellular ATP, detected with luciferase, serves as a proxy for viable cell number.
Take `CC[C@@H](Nc1c(Nc2ccc(Cl)c(S(=O)(=O)N3CCN4CCCC4C3)c2O)c(=O)c1=O)c1ccccc1` (some centres unmarked) [Example 1]: the midpoint of inhibition, the IC50, lay at 0.7 nM.
In the case of `CC[C@@H](Nc1c(Nc2ccc(Cl)c(S(=O)(=O)N3CCN4CCCC4C3)c2O)c(=O)c1=O)c1ccc(C)o1` (some centres unmarked) [Example 2] it was 0.9 nM; in that of `O=c1c(Nc2ccc(Cl)c(S(=O)(=O)N3CCN4CCCC4C3)c2O)c(Nc2cccc(F)c2Cl)c1=O` (centres unmarked) [Example 3], 5.1 nM; in that of `CC[C@@H](Nc1c(Nc2ccc(Cl)c(S(=O)(=O)N3CCN4CCOCC4C3)c2O)c(=O)c1=O)c1ccccc1` (some centres unmarked) [Example 4], 0.6 nM.
In the case of `CC[C@@H](Nc1c(Nc2ccc(Cl)c(S(=O)(=O)N3CCN4CCOCC4C3)c2O)c(=O)c1=O)c1ccc(C)o1` (some centres unmarked) [Example 5] it was 6.8 nM; in that of `O=c1c(Nc2ccc(Cl)c(S(=O)(=O)N3CCN4CCOCC4C3)c2O)c(Nc2cccc(F)c2Cl)c1=O` (centres unmarked) [Example 6], 37.8 nM; in that of `CC[C@@H](Nc1c(Nc2ccc(Cl)c(S(=O)(=O)N3CCN4CCOC[C@H]4C3)c2O)c(=O)c1=O)c1ccc(C)o1` [Example 7], 4.9 nM.
Molecule `CC[C@@H](Nc1c(Nc2ccc(Cl)c(S(=O)(=O)N3CCN4CCOC[C@H]4C3)c2O)c(=O)c1=O)c1ccc(C(F)(F)F)o1` [Example 8] had an IC50 of 56.6 nM.
The result for `CC[C@@H](Nc1c(Nc2ccc(Cl)c(S(=O)(=O)N3CCN4CCOC[C@@H]4C3)c2O)c(=O)c1=O)c1ccc(C)o1` [Example 9] reads 13.4 nM; that for `CC[C@@H](Nc1c(Nc2ccc(Cl)c(S(=O)(=O)N3CCN4CCOC[C@@H]4C3)c2O)c(=O)c1=O)c1ccc(C(F)(F)F)o1` [Example 10], 64.8 nM; that for `CCC(Nc1c(Nc2ccc(Cl)c(S(=O)(=O)N3CCN4C(=O)CCC4C3)c2O)c(=O)c1=O)c1ccccc1` (centres unmarked) [Example 11], 2.6 nM.
`CCC(Nc1c(Nc2ccc(Cl)c(S(=O)(=O)N3CCN4C(=O)CCC4C3)c2O)c(=O)c1=O)c1ccc(C)o1` (centres unmarked) [Example 12] registered an IC50 of 14.4 nM. This IC50 is about 5.5-fold higher than that of the molecule before.
In the case of `CC[C@@H](Nc1c(Nc2ccc(Cl)c(S(=O)(=O)N3CCC4(CCNC4=O)CC3)c2O)c(=O)c1=O)c1ccccc1` [Example 13] it was 22.6 nM; in that of `CC[C@@H](Nc1c(Nc2ccc(Cl)c(S(=O)(=O)N3CCC4(CCNC4=O)CC3)c2O)c(=O)c1=O)c1ccc(C)o1` [Example 14], 47.1 nM.
The result for `CC[C@@H](Nc1c(Nc2ccc(Cl)c(S(=O)(=O)N3CCC4(CC3)COCCN4)c2O)c(=O)c1=O)c1ccccc1` [Example 15] reads 33.8 nM; that for `CC[C@@H](Nc1c(Nc2ccc(Cl)c(S(=O)(=O)N3CCC4(CC3)COCCN4)c2O)c(=O)c1=O)c1ccc(C)o1` [Example 16], 8.7 nM.
The result for `CC[C@@H](Nc1c(Nc2ccc(Cl)c(S(=O)(=O)N3CCC4(CC3)COCCN4)c2O)c(=O)c1=O)c1ccc(C(F)(F)F)o1` [Example 17] reads 54.4 nM; that for `CC[C@@H](Nc1c(Nc2ccc(Cl)c(S(=O)(=O)N3CCC4(CCCC4)CC3)c2O)c(=O)c1=O)c1ccccc1` [Example 18], 149 nM; that for `CC[C@@H](Nc1c(Nc2ccc(Cl)c(S(=O)(=O)N3CCC4(CCCC4)CC3)c2O)c(=O)c1=O)c1ccc(C)o1` [Example 19], 11.6 nM.
`CC[C@@H](Nc1c(Nc2ccc(Cl)c(S(=O)(=O)N3C[C@H]4NCCO[C@@H]4C3)c2O)c(=O)c1=O)c1ccc(C)o1` [Example 20] yielded an IC50 of 58.6 nM.

Broadly, the IC50 is the point on the concentration scale where inhibition reaches its midpoint. Read a high IC50 as a need for much substance.
